According to patent US9958434B2, “Fluorescent probe sensing tyrosine kinase and use thereof” (POSTECH ACADEMY-INDUSTRY FOUNDATION, priority 2013, dated 2018):

What was measured:
[1] = Absorbance and fluorescence in HEPES buffer; type: physicochemical; details: 10 mM HEPES buffer, pH 7.5
Protocol: The present inventors measured absorbance and a change in fluorescence of compound 1 under various solvent conditions.
The present inventors measured the absorbance and fluorescence of compound 1 in a buffer (pH 7.5, 10 mM HEPES). A UV/Vis spectrophotometer commercially available from HP was used to analyze the UV/Vis absorption spectra, and a photon technical international fluorescence system commercially available from PTI was used to analyze the fluorescence spectra. In this case, a cell used when compound 1 was put into each type of equipment was a standard quartz cell having a thickness of 1 cm.
In addition to compound 1, compound 5 was shown as a reference material in FIG. 1. In this case, compound 5 is a reference material obtained by introducing an alkyl group into a —OH group of compound 1 to remove an intramolecular hydrogen bond.
The panels (a) and (b) of the graph show the absorbances and fluorescence intensities of compound 5 and compound 1 under a solvent condition (for example, a 10 mM HEPES buffer, pH 7.5).

RSK2 = molecular target: T1, RSK2 (Homo sapiens, UniProt P51812); assay: KINOMEscan competition binding (DiscoveRX); details: lower value means stronger binding
T1 construct: purchased DiscoveRX (contract KINOMEscan service)
Source text: (§1) More particularly, to determine selectivities to various kinds of kinase enzymes, the samples were entrusted to DiscoveRX (U.S.A), which was able to determine the binding affinities to a total of 96 kinase enzymes, to perform KINOMEscan experiments. This company treated all kinds of information on the entrusted samples as confidential, and analyzed the sample with charge. Compound 1 was provided to the company, and the company performed the KINOMEscan experiments, and provided the results (DiscoveRX corp.)
(§2) KINOMEscan is an experiment in which compound 1 and a compound (a material strongly binding to kinase enzymes) competing for compound 1 are treated with a kinase enzyme at the same time to determine how many the competing compound binds to active sites of the kinase enzymes, compared with compound 1. In this experiment, an experimental value is expressed as a percentile value. In this case, a lower percentile value means that compound 1 more strongly bind to the kinase enzymes.

BRAF = molecular target: T2, BRAF (Homo sapiens, UniProt P15056); assay: KINOMEscan competition binding (DiscoveRX); details: lower value means stronger binding
T2 construct: purchased DiscoveRX (contract KINOMEscan service)
Source text: as §1, §2

PDGFRa = molecular target: T3, PDGFRa (Homo sapiens, UniProt P16234); assay: KINOMEscan competition binding (DiscoveRX); details: lower value means stronger binding
T3 construct: purchased Carna Biosciences
Source text: as §1, §2

96 kinase enzymes = assay: KINOMEscan competition binding (DiscoveRX)
Source text: as §1, §2

ABL1 (T315I) = molecular target: T4, ABL1 (T315I) (Homo sapiens, UniProt P00519, T315I); assay: KINOMEscan competition binding (DiscoveRX); details: lower value means stronger binding
T4 construct: purchased DiscoveRX (contract KINOMEscan service)
Source text: as §1, §2

TYK2 = molecular target: T5, TYK2 (Homo sapiens, UniProt P29597); assay: KINOMEscan competition binding (DiscoveRX); details: lower value means stronger binding
T5 construct: purchased DiscoveRX (contract KINOMEscan service)
Source text: as §1, §2

CT-26 cancer cells = assay: Emission wavelengths of fluorescence in cancer cells using an optical fiber; type: cell-based, mouse; details: CT-26 cells treated with compound 1 as in Example 12
Protocol: More particularly, CT-26 cancer cells were treated with compound 1 in the same manner as performed in Example 12, and emission wavelengths of fluorescence were then determined using an optical fiber. The optical fiber was connected to a spectrofluorometer (FL1039, HORIBA), and ranges of excitation wavelengths and emission wavelengths are substantially the same as in Example 12. Then, the emission wavelengths of fluorescence were determined.

[2] = tested on: mouse melanoma skin cancer B16F10 tissues; assay: In vivo two-photon microscopy and OCT imaging of mouse ear transplanted with skin cancer tissues
Protocol: More particularly, a mouse's ear was transplanted with skin cancer tissues (mouse melanoma skin cancer B16F10), and treated with compound 1 to determine that fluorescence was selectively observed in a site of cancer in living mice under a two-photon microscope. 6-month-old, SPF/VAF immunodeficent female nude mice (BALB/c-nude mice, OrientBio corp.) were used as the mice, and the B16F10 cancer cells were prepared in the same manner as in Example 12. Then, the concentrated cancer cells from which a solution was removed using a centrifuge were injected into one ear of each mouse using a syringe. After 4 day, formation of cancer tissues in the mouse's ear was checked, and 10 μL of compound 1 (10 mM) was injected into the one ear of each mouse. […] After 30 minutes, the mice were anesthetized by […], and images were taken of cancer tissues and normal tissues using a two-photon fluorescence microscope. […]
In FIG. 13, each image has a size of 300 μm×300 μm, and a scale bar represents 50 μm. A right bar represents a fluorescence signal intensity. […] The panels a and d show the two-photon fluorescence imaging results from the mice into which nothing is injected, the panels b and e show the two-photon fluorescence imaging results from the mice into which 10 μL of a PBS buffer including no compound 1 is injected, and the panels c and f show the […]

T3 sequence (P16234 24-1089): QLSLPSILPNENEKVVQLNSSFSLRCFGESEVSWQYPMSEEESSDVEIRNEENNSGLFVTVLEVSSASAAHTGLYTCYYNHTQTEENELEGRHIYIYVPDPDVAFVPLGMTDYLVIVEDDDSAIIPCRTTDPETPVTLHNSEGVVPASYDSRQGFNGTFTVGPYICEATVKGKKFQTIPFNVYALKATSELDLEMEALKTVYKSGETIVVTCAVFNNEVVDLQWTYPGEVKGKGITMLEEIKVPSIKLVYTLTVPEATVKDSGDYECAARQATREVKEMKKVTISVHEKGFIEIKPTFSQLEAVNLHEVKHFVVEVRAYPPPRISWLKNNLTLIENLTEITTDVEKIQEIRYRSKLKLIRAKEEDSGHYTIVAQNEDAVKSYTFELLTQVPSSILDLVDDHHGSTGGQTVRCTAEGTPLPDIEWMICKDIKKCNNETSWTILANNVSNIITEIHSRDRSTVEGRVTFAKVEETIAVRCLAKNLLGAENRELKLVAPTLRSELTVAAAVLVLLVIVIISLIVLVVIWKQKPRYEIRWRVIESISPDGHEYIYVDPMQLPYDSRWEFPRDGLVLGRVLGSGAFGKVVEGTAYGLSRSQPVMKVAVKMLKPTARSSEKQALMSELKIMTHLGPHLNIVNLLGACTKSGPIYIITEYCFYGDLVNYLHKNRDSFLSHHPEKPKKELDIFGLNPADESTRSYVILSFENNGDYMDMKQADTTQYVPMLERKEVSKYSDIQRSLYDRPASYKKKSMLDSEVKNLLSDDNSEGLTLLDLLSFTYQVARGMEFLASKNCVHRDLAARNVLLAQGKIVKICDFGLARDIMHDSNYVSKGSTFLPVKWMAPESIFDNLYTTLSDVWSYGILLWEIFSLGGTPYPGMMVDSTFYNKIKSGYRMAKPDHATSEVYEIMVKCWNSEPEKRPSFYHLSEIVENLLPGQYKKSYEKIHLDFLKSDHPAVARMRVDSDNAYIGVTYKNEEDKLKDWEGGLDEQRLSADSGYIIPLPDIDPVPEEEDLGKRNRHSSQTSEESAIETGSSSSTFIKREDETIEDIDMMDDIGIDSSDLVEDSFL
T1 sequence (P51812 whole entry): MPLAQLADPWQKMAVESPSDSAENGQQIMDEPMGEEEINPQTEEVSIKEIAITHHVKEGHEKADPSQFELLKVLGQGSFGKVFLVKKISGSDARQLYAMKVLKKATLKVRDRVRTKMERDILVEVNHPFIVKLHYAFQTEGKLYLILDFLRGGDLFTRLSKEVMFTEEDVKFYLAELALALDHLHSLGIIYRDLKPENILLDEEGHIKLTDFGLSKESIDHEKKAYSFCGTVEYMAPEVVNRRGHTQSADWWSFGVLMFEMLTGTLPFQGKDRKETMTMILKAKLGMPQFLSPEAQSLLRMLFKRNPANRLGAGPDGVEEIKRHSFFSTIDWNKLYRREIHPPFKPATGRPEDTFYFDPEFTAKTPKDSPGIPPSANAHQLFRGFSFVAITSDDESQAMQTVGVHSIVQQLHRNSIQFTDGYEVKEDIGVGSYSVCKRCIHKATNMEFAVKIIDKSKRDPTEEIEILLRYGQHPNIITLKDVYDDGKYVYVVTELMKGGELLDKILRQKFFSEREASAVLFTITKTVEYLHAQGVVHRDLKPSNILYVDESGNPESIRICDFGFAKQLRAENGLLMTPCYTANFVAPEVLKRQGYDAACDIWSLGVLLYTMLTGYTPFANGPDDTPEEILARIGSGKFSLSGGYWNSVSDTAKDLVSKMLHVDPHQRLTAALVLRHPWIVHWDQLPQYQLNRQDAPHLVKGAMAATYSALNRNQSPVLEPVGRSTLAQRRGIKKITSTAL
T5 sequence (P29597 whole entry): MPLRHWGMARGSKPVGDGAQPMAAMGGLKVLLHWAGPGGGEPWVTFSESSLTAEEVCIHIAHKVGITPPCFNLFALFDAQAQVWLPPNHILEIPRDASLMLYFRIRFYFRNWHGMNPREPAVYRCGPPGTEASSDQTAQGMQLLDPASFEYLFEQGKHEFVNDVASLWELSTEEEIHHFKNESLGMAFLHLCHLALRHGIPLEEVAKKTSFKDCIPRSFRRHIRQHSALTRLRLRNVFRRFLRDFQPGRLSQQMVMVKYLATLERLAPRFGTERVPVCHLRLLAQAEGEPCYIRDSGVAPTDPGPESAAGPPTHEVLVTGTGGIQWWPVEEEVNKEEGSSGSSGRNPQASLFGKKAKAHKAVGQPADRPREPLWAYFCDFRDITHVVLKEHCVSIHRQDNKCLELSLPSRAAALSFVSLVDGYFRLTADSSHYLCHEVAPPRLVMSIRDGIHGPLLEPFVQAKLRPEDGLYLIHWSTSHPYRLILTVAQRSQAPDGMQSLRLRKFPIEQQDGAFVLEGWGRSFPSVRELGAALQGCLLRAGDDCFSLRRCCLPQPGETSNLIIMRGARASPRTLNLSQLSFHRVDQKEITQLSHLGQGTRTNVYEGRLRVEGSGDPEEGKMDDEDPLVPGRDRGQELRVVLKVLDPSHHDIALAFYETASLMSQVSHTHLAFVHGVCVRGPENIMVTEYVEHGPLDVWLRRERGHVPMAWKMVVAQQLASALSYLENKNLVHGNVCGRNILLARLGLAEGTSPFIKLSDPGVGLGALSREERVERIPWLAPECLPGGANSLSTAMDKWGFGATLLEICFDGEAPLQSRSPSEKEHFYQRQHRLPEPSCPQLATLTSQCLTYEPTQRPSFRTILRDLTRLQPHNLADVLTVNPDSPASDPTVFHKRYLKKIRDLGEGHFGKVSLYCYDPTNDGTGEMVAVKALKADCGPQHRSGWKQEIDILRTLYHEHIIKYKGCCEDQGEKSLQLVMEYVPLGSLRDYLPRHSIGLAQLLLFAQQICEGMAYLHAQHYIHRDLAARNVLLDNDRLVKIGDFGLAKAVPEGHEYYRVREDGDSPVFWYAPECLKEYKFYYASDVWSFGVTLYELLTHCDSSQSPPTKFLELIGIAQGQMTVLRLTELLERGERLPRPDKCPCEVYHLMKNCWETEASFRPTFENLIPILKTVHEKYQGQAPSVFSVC
T2 sequence (P15056 whole entry): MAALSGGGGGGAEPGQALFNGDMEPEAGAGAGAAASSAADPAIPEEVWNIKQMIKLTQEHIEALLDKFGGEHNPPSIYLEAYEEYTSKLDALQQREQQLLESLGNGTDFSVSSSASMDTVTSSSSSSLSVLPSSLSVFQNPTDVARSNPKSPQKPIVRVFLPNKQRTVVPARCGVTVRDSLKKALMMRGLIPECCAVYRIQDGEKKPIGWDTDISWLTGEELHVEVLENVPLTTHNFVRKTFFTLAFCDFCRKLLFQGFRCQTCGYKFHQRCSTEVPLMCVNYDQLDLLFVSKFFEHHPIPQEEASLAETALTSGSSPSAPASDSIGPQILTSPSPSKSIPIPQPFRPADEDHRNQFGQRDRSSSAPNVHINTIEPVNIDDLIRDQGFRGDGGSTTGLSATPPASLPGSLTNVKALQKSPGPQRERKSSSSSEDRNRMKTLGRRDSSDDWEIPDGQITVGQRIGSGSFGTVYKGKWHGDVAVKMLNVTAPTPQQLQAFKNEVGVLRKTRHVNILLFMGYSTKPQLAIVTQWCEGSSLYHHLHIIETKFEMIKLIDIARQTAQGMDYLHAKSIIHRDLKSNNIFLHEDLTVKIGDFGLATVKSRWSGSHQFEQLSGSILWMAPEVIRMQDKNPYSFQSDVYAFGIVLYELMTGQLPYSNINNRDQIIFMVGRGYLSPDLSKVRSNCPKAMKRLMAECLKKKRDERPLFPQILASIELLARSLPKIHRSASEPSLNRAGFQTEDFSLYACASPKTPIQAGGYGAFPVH

fluorescence emission [1]: did not emit fluorescence | maximum absorbance [1]: 390 nm | KINOMEscan percentile value (RSK2): low percentile value | KINOMEscan percentile value (BRAF): low percentile value | KINOMEscan percentile value (PDGFRa): low percentile value | number of kinase enzymes bound, of a total of 96 (96 kinase enzymes): at least 50 | KINOMEscan percentile value (ABL1 (T315I)): low percentile value | KINOMEscan percentile value (TYK2): low percentile value
SMILES: CN(C)c1ccc2cc(C=O)c(O)cc2c1 [compound 1, 6-(dimethylamino)-3-hydroxyl-2-naphthaldehyde]
emission wavelength of fluorescence in cells (CT-26 cancer cells): around 550 nm | two-photon fluorescence in cancer tissues versus normal tissues ([2]; nude mice, ear injection of 10 μL of compound 1 (10 mM), imaged after 30 minutes, ex 880 nm): strong fluorescence was selectively observed in the cancer tissues | 3D imaging (two-photon microscopy combined with OCT) fluorescence ([2]; same conditions as Example 14, cancer tissues): fluorescence was strongly emitted from the wide tissues
